From patent US20260199500A1, “Camptothecin Derivative, Conjugate Thereof, Preparation Method Therefor and Medical Use Thereof” (priority 2023, published 2026)

Experiments:
[1] = Log D of small molecules (1-octanol / phosphate buffer pH 2.5 and pH 7.4, LC-MS/MS); type: physicochemical
Protocol: (1) Preparation of 100 mM phosphate buffer (PB) solution at pH 2.5 and pH 7.4 respectively: • a. Preparation of a solution of 100 mM H3PO4 in water: 14.7 M H3PO4 was diluted with water to a concentration of 100 mM H3PO4, and the pH was measured to be approximately 1.8. • b. Preparation of 100 mM NaH2PO4: 5.999 g of NaH2PO4 was dissolved in 500 mL of water and the pH was measured to be approximately 4.5. • c. Preparation of 100 mM Na2HPO4: 7.098 g of Na2HPO4 was dissolved in water to a volume of 500 mL and the pH was measured to be approximately 9.4. • d. Preparation of 100 mM PB (pH 2.5): 15 mL of 100 mM H3PO4 was added to a 50 mL tube, and then pH was adjusted to 2.5±0.05 with 100 mM NaH2PO4. • d. Preparation of 100 mM PB (pH 7.4): 15 mL of 100 mM Na2HPO4 was added to a 50 mL tube, and then pH was adjusted to 7.4±0.05 with 100 mM NaH2PO4.
(2) Saturation of PBs (pH 2.5 and pH 7.4) with 1-octanol: 10 mL of 1-octanol was added to 100 mL of 100 mM PBs (pH 2.5 and pH 7.4), and the mixture was shaken vigorously, and then allowed to stand overnight at room temperature for later use.
(3) Saturation of 1-octanol with PBs (pH 2.5 and pH 7.4): 10 mL of 100 mM PBs (pH 2.5 and pH 7.4) was added to 100 mL of 1-octanol, and the mixture was shaken vigorously, and then allowed to stand overnight at room temperature for later use.
2.1) 2 μL of 10 mM DMSO stock solution of the test compound were dispensed into test tubes, in duplicate.
2.2) 149 μL of PB saturated with 1-octanol (pH 2.5 and 7.4) were added to the tubes.
2.3) 149 μL of PB (pH 2.5 and 7.4) saturated with 1-octanol were added to the corresponding tubes.
2.4) Each tube was vigorously mixed for 2 minutes, then shaken at 800 rpm for 1 hour at room temperature.
2.5) The tubes were centrifuged at 4000 rpm for 5 minutes at room temperature.
2.6) Appropriate volumes of the buffer phase and 1-octanol phase samples were aliquoted.
2.7) These samples were diluted and analyzed using LC-MS/MS without running a calibration curve.
2.8) Data analysis: The log D value of each compound was calculated using the following formula: f

[2] = tested on: N87 gastric cancer cells; assay: Inhibitory activity of compounds on N87 gastric cancer cells (CellTiter-Glo, 144 h); type: cell-based; conditions: for IC50 on N87 cells, ratio to DXD: IC50 of PY-X (DXD) set to 1, values are ratios of measured IC50 to DXD, 144 h
Protocol: (§1) On the day of the experiment, the cells were digested with 0.25% trypsin (Gibco, 25200-072), filtered through a 40 μm sieve, diluted with the corresponding medium to a cell density of 1×10^4 cells/mL, and inoculated into a 96-well white cell culture plate (Beyotime, FCP968), with 100 μL of cells added per well. The culture plate was placed in a 37° C. incubator (Thermo 311) containing 5% C02 and incubated for 24 hours. On the second day, the samples to be tested were prepared as a stock solution at a final concentration of 1M in DMSO (Sigma, D1650), then diluted with the corresponding medium to a final concentration of 200 nM, and subjected to four-fold serial dilutions, resulting in a total of 9 concentrations. 100 μL of the diluted sample was added to each well of the 96-well plate. The plate was placed in a 37° C. incubator containing 5% CO2 and incubated for 144 hours. The cell culture plate was then removed, and 100 μL of the cell viability assay reagent (CellTiter-Glo® Luminescent Cell Viability Assay, Promega, G7571) was added to each well. The reaction was carried out in the dark at room temperature for 5 minutes. Luminescence values were read using a microplate reader (TECAN SPARK), and data were processed using Graphpad Prism 7 software.
(§2) PY—Y is referenced in the document (WO2022170971A1); and PY-A is referenced in the document (WO2021148501A1).

[3] = tested on: MDA-MB-468 breast cancer cells; assay: Inhibitory activity of compounds on MDA-MB-468 breast cancer cells (CellTiter-Glo); type: cell-based; conditions: for IC50 on 468 cells, ratio to DXD: IC50 of PY-X (DXD) set to 1, values are ratios of measured IC50 to DXD
Protocol: as §1, §2

[4] = samples retested together, ratio of measured IC50 to DXD

SMILES | logD ([1]; pH 2.5) | logD ([1]; pH 7.4) | IC50 on N87 cells, ratio to DXD (retest) [2, 4] | IC50 on 468 cells, ratio to DXD (retest) [3, 4] | IC50 on N87 cells, ratio to DXD [2] | IC50 on 468 cells, ratio to DXD [3]
CC[C@@]1(O)C(=O)OCc2c1cc1n(c2=O)Cc2c-1nc1cc(F)c(C)c3c1c2[C@@H](NC(=O)OCCCO)CC3 [PY-4Car3C, 3-hydroxypropyl((1S,9S)-9-ethyl-5-fluoro-9-hydroxy-4-methyl-10,13-dioxo-2,3,9,10,13,15-hexahydro-1H,12H-benzo[d]pyrano[3′,4′:6,7]indolizino[1,2-b]quinolin-1-yl)carbamate] | 2.2 | 2.29 | 0.3593 | 0.5740 | – | –
CC[C@@]1(O)C(=O)OCc2c1cc1n(c2=O)Cc2c-1nc1cc(F)c(OC)c3c1c2CCC3 [PY-11, (S)-9-ethyl-5-fluoro-9-hydroxy-4-methoxy-1,2,3,9,12,15-hexahydro-10H,13H-benzo[de]pyrano[3′,4:6,7]indolizino[1,2-b]quinolin-10,13-dione] | – | – | – | – | 0.0606 | 0.9642
CC[C@@]1(O)C(=O)OCc2c1cc1n(c2=O)Cc2c-1nc1cc(F)c(OC)c3c1c2[C@@H](N)CC3 [PY-12A, (1S,9S)-1-amino-9-ethyl-5-fluoro-9-hydroxy-4-methoxy-1,2,3,9,12,15-hexahydro-10H,13H-benzo[de]pyrano[3′,4:6,7]indolizino[1,2-b]quinolin-10,13-dione] | – | – | – | – | 1.6441 | 3.3035
CC[C@@]1(O)C(=O)OCc2c1cc1n(c2=O)Cc2c-1nc1cc(F)c(OC)c3c1c2[C@H](N)CC3 [PY-12B, (1R,9S)-1-amino-9-ethyl-5-fluoro-9-hydroxy-4-methoxy-1,2,3,9,12,15-hexahydro-10H,13H-benzo[de]pyrano[3′,4:6,7]indolizino[1,2-b]quinolin-10,13-dione] | – | – | – | – | 5.3044 | 8.4257
CC[C@@]1(O)C(=O)OCc2c1cc1n(c2=O)Cc2c-1nc1cc(F)c(OCCN)c3c1c2CCC3 [PY-17, (S)-4-(2-aminoethoxy)-9-ethyl-5-fluoro-9-hydroxy-1,2,3,9,12,15-hexahydro-10H,13H-benzo[d]pyrano[3′,4′:6,7]indolizino[1,2-b]quinolin-10,13-dione] | – | – | – | – | 3.7859 | 8.0396
CC[C@@]1(O)C(=O)OCc2c1cc1n(c2=O)Cc2c-1nc1cc(F)c(CCN)c3c1c2CCC3 [PY-20] | – | – | – | – | 1.0070 | 1.2806
CC[C@@]1(O)C(=O)OCc2c1cc1n(c2=O)Cc2c-1nc1cc(F)c(CCCCN)c3c1c2CCC3 [PY-24] | – | – | – | – | 1.5288 | 2.2057
